Results as given in patent US4481201A, “Pharmaceutical composition containing N,N^3 -di-(β-bromopropionyl)-N^1,N^2 -dispirotripiperazinium dichloride” (Vsesojuzny Nauchno-Issledovatelsky Khimoko-Farmasevtichesky …, priority 1981, dated 1984).
Like-named read-outs stand apart in the source and are kept apart here.

Experiments:
[1] = Withdrawal of radioactivity from the rats' organism; type: in vivo; set-up: concentration or dose not given beside the values; settings: C^14-labeled
Text: In the case of administration of the preparation according to the present invention labeled with C^14, a higher level of radioactivity in blood is observed than in the case of prospidin labeled with C^14. A higher rate of accumulation of the preparation according to the present invention as compared to prospidin is observed in larynx, windpipe, bronchi, bone marrow, tumor and thyroid gland. The preparation according to the present invention labeled with C^14 is withdrawn from the organism within 24 hours after the intravenous administration mainly with urine, while C^14 --labeled prospidin is retained in the organism for a longer period.

leukemia L1210 = test: Life span of mice with transplantable leukemia L1210; type: in vivo, inbred mice
Text: (§1) The antitumor activity has been studied on white rats weighing 110-130 g, as well as on white noninbred and inbred mice weighing 17-21 g with ligated tumors. The treatment is started 5-7 days transplanting of solid tumors and the following day after the transplanting of leukotic strains. Use has been made of the following transplantable strains of the tumors:
(§2) (3) inbred mice: leukemia La, leukemia L1210 and P-388.
(§3) The activity of compounds relative to leukosis has been assessed by the life span (It) of treated animals as compared to the control ones. It --index of suppression of leukosis development is calculated by the formula: [formula]

leukemia P-388 = test: Life span of mice with transplantable leukemia P-388; type: in vivo, inbred mice
Text: as §1, §2, §3

acute leucosis = test: Clinical study on patients; type: in vivo
Text: The preparation according to the present invention has been studied in two clinics on patients with different localization of the tumoral process; the tests have justified its low toxicity.
54 patients were under observation including 20 patients with malignant blood diseases. In all the patients both before and after the course of treatment with the medicated compound according to the present invention the clinical state has been assessed (general state, presence of increased lymphatic nodes, liver and spleen). There were also carried out the analyses of peripheral blood, bone marrow, urine, as well as biochemical blood characteristics and electrocardiographic data (ECG).

leukemia La = test: Life span of mice with transplantable leukemia La; type: in vivo, inbred mice
Text: as §1, §2, §3

sarcoma AK = test: Growth of graft sarcoma AK in mice; type: in vivo, noninbred white mice; settings: mice
Text: as §1
(§4) (2) noninbred white mice: sarcoma 180, sarcoma AK, sarcoma 37, carcinoma HK;
(§5) The compounds of the general formula (I), wherein X represents Cl^- (compound 1), Br^- (compound 2) are well-soluble in an isotonic solution of sodium chloride and they are administered intraperitoneally. The doses of the compounds have been calculated in mg per kg of the animal bodyweight.

[2] = Growth of graft sarcoma AK in mice; type: in vivo, noninbred white mice; settings: mouse, in vivo, ip; mice with sarcoma AK, repeated intraperitoneal administration; read-out: Maximum tolerable dose (MTD)
Text: as §1, §4, §5

[3] = Toxicity on single and repeated administration to mice; type: in vivo
Procedure: (3) acute toxicity of the compounds upon a single and repeated administration to white noninbred mice places into standard cages with 8 animals in each.
In the investigation of toxic properties of the compounds according to the present invention there has been determined the absolutely lethal dose (DL95), average lethal dose (DL50) and MTD. For compounds 1 and 2 there were determined DL95 and DL50 on healthy white mice with the body mass of 18-21 g at a single and repeated (once a day, daily for 7 days) intraperitoneal administration.

sarcoma 180 = test: Growth of graft sarcoma 180 in mice; type: in vivo, noninbred white mice; settings: mice; for It, % tumor growth suppression index / Change in the animal body weight, test: 6 injections
Text: as §1, §4, §5

[4] = Growth of graft sarcoma 180 in mice; type: in vivo, noninbred white mice; settings: mouse, in vivo, ip; mice with sarcoma 180, repeated intraperitoneal administration; read-out: Maximum tolerable dose (MTD)
Text: as §1, §4, §5

transplantable leukemia = test: Activity relative to leukoses of inbred mice (overall); type: in vivo
Text: (2) activity of the compounds relative to leukoses of inbred mice;
as §1, §2, §3

[5] = Growth of graft Ienssen sarcoma in rats; type: in vivo; settings: rat, in vivo, ip, rats with Ienssen sarcoma, repeated intraperitoneal administration; read-out: Maximum tolerable dose (MTD)
Text: as §1
(§6) (1) rats: Ienssen's sarcoma, sarcoma 45, sarcoma M-1, sarcoma 536;
as §5

Ienssen's sarcoma = test: Growth of graft Ienssen sarcoma in rats; type: in vivo; settings: for Ch/T chemotherapeutical index (ratio of MTD to minimum effective dose): Ienssen sarcoma
Text: as §1, §6, §5

[6] = 24 hours after intravenous administration
[7] = mice with transplantable leukemia L1210
[8] = mice with transplantable leukemia P-388
[9] = mice with transplantable leukemia La
[10] = 75 mg/kg intraperitoneally, 8 injections
[11] = 125 mg/kg intraperitoneally, 6 injections
[12] = mice, repeated intraperitoneal administration (once a day, daily for 7 days)
[13] = mice, repeated intraperitoneal administration (once a day, daily for 7 days), listed as Preparation of the invention
[14] = mice, single intraperitoneal administration
[15] = hypodermally, 68.6 mg/kg, 5 injections
[16] = intramuscularly, 55.5 mg/kg, 6 injections
[17] = rats, 1 mg/kg intraperitoneally, 7 injections
[18] = rats, 4 mg/kg intraperitoneally, 6 injections
[19] = rats, 6 mg/kg intraperitoneally, 6 injections
[20] = rats, 10 mg/kg intraperitoneally, 7 injections
[21] = rats, 20 mg/kg intraperitoneally, 7 injections
[22] = rats, 40 mg/kg intraperitoneally, 5 injections
[23] = rats, 90 mg/kg intraperitoneally, 7 injections
[24] = rats, 125 mg/kg intraperitoneally, 7 injections
[25] = rats, per os, 142 mg/kg, 7 injections

O=C(CCBr)N1CC[N+]2(CC1)CC[N+]1(CCN(C(=O)CCBr)CC1)CC2 [Compound 1, N,N^3 -di-(β-bromopropionyl)-N^1,N^2 -dispirotripiperazinium dichloride]
Withdrawal of radioactivity, Feces [1, 6]: 1.6% | Withdrawal of radioactivity, Total [1, 6]: 99.9% | Withdrawal of radioactivity, Urina [1, 6]: 98.3% | Withdrawal of radioactivity, Urina ([1]; within 3 hours after intravenous administration): 80.7% | extension of life span as compared to the control, factor (leukemia L1210; leukemia L1210): 1.03 | It, % index of suppression of leukosis development (leukemia L1210; [7]): 38% | Life span (leukemia L1210; [7]): 10.6 ± 2 days | extension of life span as compared to the control, factor (leukemia P-388; leukemia P-388): 2 | It, % index of suppression of leukosis development (leukemia P-388; [8]): 103% | Life span (leukemia P-388; [8]): 19.7 ± 0.2 days | patients with positive effect (acute leucosis; intravenously, doses of from 100 to 1,000 mg): 45% | tolerability in patients (acute leucosis; intravenously, single doses 500 to 600 mg daily (up to 10 g for 20 days)): well tolerated | patients with complete clinicohematological remission (acute leucosis; patients with acute lympho- and mielo-regional leukemiae, intravenously 100 to 1,000 mg): 20% | extension of life span of treated mice as compared to the control (leukemia La; leukemia La, MTD): 3 times | It, % index of suppression of leukosis development (leukemia La; [9]): 218% | Life span (leukemia La; [9]): 21.2 ± 0.1 days | Change in the animal body weight, test (sarcoma AK; [10]): -3 g | It, % tumor growth suppression index (sarcoma AK; [10]): +81% | Change in the animal body weight, test (sarcoma AK; [11]): -1 g | It, % tumor growth suppression index (sarcoma AK; [11]): +62% | It, % tumor growth suppression index (sarcoma AK; 200 mg/kg intraperitoneally, 5 injections): +64% | Change in the animal body weight, test (sarcoma AK; 250 mg/kg intraperitoneally (MTD), 6 injections): -3 g | MTD [2]: 250 mg/kg | toxicity in comparison with prospidin ([3]; less toxic than prospidin, DL50 single administration to mice): 2 times | Ik index of toxic effect cumulation ([3]; mice, intraperitoneal administration): 82 | DL50 (average lethal dose) [3, 12]: 444 mg/kg | DL95 (absolutely lethal dose) [3, 12]: 577 mg/kg | DL50 (average lethal dose) [3, 13]: 444 mg/kg | DL95 (absolutely lethal dose) [3, 13]: 577 mg/kg | DL50 (average lethal dose) [3, 14]: 1,924 mg/kg | DL95 (absolutely lethal dose) [3, 14]: 2,272 mg/kg | DL95 (absolutely lethal dose) ([3]; mice, single intraperitoneal administration, listed as Preparation of the invention): 2272 mg/kg | DL50 (average lethal dose) ([3]; mice, single intraperitoneal administration, listed as preparation according to the present invention): 1,924 mg/kg | LD50 ([3]; mouse, in vivo, ip, mice, single intraperitoneal administration, read-out: DL50 (average lethal dose)): 1920 mg/kg | MTD ([3]; mouse, in vivo, ip, repeated intraperitoneal administration, read-out: MTD): 149 mg/kg | tumor growth suppression class, Sarcoma 180 (sarcoma 180): ++ (tumor growth suppression by 80-95%) | It, % tumor growth suppression index (sarcoma 180; 25 mg/kg intraperitoneally): +42% | Change in the animal body weight, test (sarcoma 180; 75 mg/kg intraperitoneally): -4 g | It, % tumor growth suppression index (sarcoma 180; 75 mg/kg intraperitoneally, 75 mg/kg): +74% | It, % tumor growth suppression index (sarcoma 180; 75 mg/kg intraperitoneally, listed as preparation of the invention, 75 mg/kg): 74% | Change in the animal body weight, test (sarcoma 180; 262 mg/kg intraperitoneally (MTD)): -6 g | MTD [4]: 262 mg/kg | effect on transplantable leukemia in mice (transplantable leukemia): clearly pronounced antileukotic effect | effect on transplantable leukemia in mice (transplantable leukemia; listed as preparation according to the present invention): pronounced antileucotic effect | MTD [5]: 160 mg/kg | Ch/T chemotherapeutical index (ratio of MTD to minimum effective dose) (Ienssen's sarcoma): 60 | Ch/T chemotherapeutical index (ratio of MTD to minimum effective dose) (Ienssen's sarcoma; listed as Preparation of the invention): 60 | Change in the bodyweight of animals, test (Ienssen's sarcoma; [15]): -6 g | It, % (Ienssen's sarcoma; [15]): +86% | Change in the bodyweight of animals, test (Ienssen's sarcoma; [16]): -11 g | It, % (Ienssen's sarcoma; [16]): +78% | Change in the animal body weight, test (Ienssen's sarcoma; [17]): -2 g | It, % tumor growth suppression index (Ienssen's sarcoma; [17]): 0% | Change in the animal body weight, test (Ienssen's sarcoma; rats, 2 mg/kg intraperitoneally, 6 injections): -1 g | Change in the animal body weight, test (Ienssen's sarcoma; [18]): 0 g | It, % tumor growth suppression index (Ienssen's sarcoma; [18]): +81% | Change in the animal body weight, test (Ienssen's sarcoma; [19]): +10 g | It, % tumor growth suppression index (Ienssen's sarcoma; [19]): +80% | Change in the animal body weight, test (Ienssen's sarcoma; [20]): +4 g | It, % tumor growth suppression index (Ienssen's sarcoma; [20]): +93% | Change in the animal body weight, test (Ienssen's sarcoma; [21]): +30 g | It, % tumor growth suppression index (Ienssen's sarcoma; [21]): +98% | Change in the animal body weight, test (Ienssen's sarcoma; [22]): +20 g | It, % tumor growth suppression index (Ienssen's sarcoma; [22]): +85% | Change in the animal body weight, test (Ienssen's sarcoma; [23]): +6 g | It, % tumor growth suppression index (Ienssen's sarcoma; [23]): +86% | Change in the animal body weight, test (Ienssen's sarcoma; [24]): +4 g | It, % tumor growth suppression index (Ienssen's sarcoma; [24]): +89% | Change in the animal body weight, test (Ienssen's sarcoma; rats, 160 mg/kg intraperitoneally (MTD), 7 injections): -12 g | Change in the bodyweight of animals, test (Ienssen's sarcoma; [25]): -15 g | It, % (Ienssen's sarcoma; [25]): +55% | range of therapeutical action as compared to prospidin (Ienssen's sarcoma; wider than prospidin): 2.5 fold
